Data from patent EP0670711B1, “ANTIFUNGAL MOUTHCARE COMPOSITIONS” (AMBI Inc., priority 1992, dated 1994).
Converted amounts (≈) assume the structure as drawn. Like-named read-outs stand apart in the source and are kept apart here.

What was measured:
Assay type in all cases: cell-based
Strep. agalactiæ = assay: nominal inhibitory concentration (NIC) assay; conditions: read-out: NIC
Strep. sanguis = assay: nominal inhibitory concentration (NIC) assay; conditions: read-out: NIC
Strep.mutans = assay: nominal inhibitory concentration (NIC) assay; conditions: Streptococcus mutans, read-out: NIC
Strep. milleri = assay: nominal inhibitory concentration (NIC) assay; conditions: read-out: NIC
Strep. mitis = assay: nominal inhibitory concentration (NIC) assay; conditions: Streptococcus mitis, read-out: NIC
Strep mitior = assay: nominal inhibitory concentration (NIC) assay; conditions: read-out: NIC
Strep. salivarius = assay: nominal inhibitory concentration (NIC) assay; conditions: Streptococcus salivarius, read-out: NIC
Strep.pyogenes = assay: nominal inhibitory concentration (NIC) assay; conditions: Streptococcus pyogenes, read-out: NIC
Staph.aureus = assay: nominal inhibitory concentration (NIC) assay; conditions: Staphylococcus aureus, read-out: NIC
A actinomyces NCTC 9709 = assay: zone diffusion assay; conditions: solution with 500ppm of each agent
Text: (§1) The assay was repeated for each of cetyl pyridinium chloride, chlorhexidine or triclosan individually. […]

C albicans NCTC 3089 = assay: zone diffusion assay; conditions: solution with 500ppm of each agent
Text: as §1

C kefyr NCTC 3106 = assay: zone diffusion assay; conditions: solution with 500ppm of each agent
Text: as §1

C tropicalis NCTC 3114 = assay: zone diffusion assay; conditions: solution with 500ppm of each agent
Text: as §1

F nucleatum NCTC 10562 = assay: zone diffusion assay; conditions: solution with 500ppm of each agent
Text: as §1

S mutans NCTC 11061 = assay: zone diffusion assay; conditions: solution with 500ppm of each agent
Text: as §1

S sanguis NCTC 10904 = assay: zone diffusion assay; conditions: solution with 500ppm of each agent
Text: as §1

W recta NCTC 11489 = assay: zone diffusion assay; conditions: solution with 500ppm of each agent
Text: as §1

G.vaginalis = assay: nominal inhibitory concentration (NIC) assay; conditions: Gardnerella vaginalis, read-out: NIC
Lacto odontolyticus = assay: nominal inhibitory concentration (NIC) assay; conditions: read-out: NIC
Act. odontolyticus = assay: nominal inhibitory concentration (NIC) assay; conditions: Schaalia odontolytica, read-out: NIC
Act. israelii = assay: nominal inhibitory concentration (NIC) assay; conditions: Actinomyces israelii; Act. israelii; read-out: NIC
Act. naeslundii = assay: nominal inhibitory concentration (NIC) assay; conditions: Actinomyces naeslundii, read-out: NIC
Act. actinomycetem = assay: nominal inhibitory concentration (NIC) assay; conditions: read-out: NIC
Fuso. nucleatum = assay: nominal inhibitory concentration (NIC) assay; conditions: Fusobacterium nucleatum, read-out: NIC
Bact. intermedius = assay: nominal inhibitory concentration (NIC) assay; conditions: Prevotella intermedia, read-out: NIC
Peptostrepto. micros = assay: nominal inhibitory concentration (NIC) assay; conditions: read-out: NIC
Porph. gingivalis = assay: nominal inhibitory concentration (NIC) assay; conditions: Porphyromonas gingivalis, read-out: NIC
Bact. ureolyticus = assay: nominal inhibitory concentration (NIC) assay; conditions: read-out: NIC
Candida albicans = assay: nominal inhibitory concentration (NIC) assay; conditions: read-out: NIC
Candida kefyr = assay: nominal inhibitory concentration (NIC) assay; conditions: Kluyveromyces marxianus, read-out: NIC
Candida tropicalis = assay: nominal inhibitory concentration (NIC) assay; conditions: read-out: NIC
[1] = test system: all the organisms shown in the Example 25 Table 1; assay: NIC assay, summary over all organisms of Table 1; conditions: read-out: levels needed to inhibit all the desired oral microrganisms
Candida organisms = assay: NIC assay, summary for Candida

[H]/N=C(\N/C(=N/[H])NCCCCCCNC(=N)NC(=N)Nc1ccc(Cl)cc1)Nc1ccc(Cl)cc1 [CHX, chlorhexidine]
MIC (Strep. agalactiæ; Strep. agalactiæ): 0.41 µg/mL (≈ 0.811 µM)
MIC (Strep. sanguis; Strep. sanguis): 0.86 µg/mL (≈ 1.7 µM)
MIC (Strep.mutans; Strep.mutans): 3.94 µg/mL (≈ 7.79 µM)
MIC (Strep. milleri; Strep. milleri): 1.58 µg/mL (≈ 3.13 µM)
MIC (Strep. mitis; Strep. mitis): 1.5 µg/mL (≈ 2.97 µM)
MIC (Strep mitior; Strep mitior): 4.55 µg/mL (≈ 9 µM)
MIC (Strep. salivarius; Strep. salivarius): 1.44 µg/mL (≈ 2.85 µM)
MIC (Strep.pyogenes; Strep.pyogenes): 0.16 µg/mL (≈ 0.317 µM)
MIC (Staph.aureus; Staph.aureus): 0.54 µg/mL (≈ 1.07 µM)
mean zones (A actinomyces NCTC 9709): 35.68 mm
mean zones (C albicans NCTC 3089): 14.93 mm
mean zones (C kefyr NCTC 3106): 17.03 mm
mean zones (C tropicalis NCTC 3114): 17.36 mm
mean zones (F nucleatum NCTC 10562): 36.97 mm
mean zones (S mutans NCTC 11061): 29.68 mm
mean zones (S sanguis NCTC 10904): 22.76 mm
mean zones (W recta NCTC 11489): 32.35 mm
MIC (G.vaginalis; G.vaginalis): 1.3 µg/mL (≈ 2.57 µM)
MIC (Lacto odontolyticus; Lacto odontolyticus): 1.88 µg/mL (≈ 3.72 µM)
MIC (Act. odontolyticus; Act. odontolyticus): 3.37 µg/mL (≈ 6.67 µM)
MIC (Act. israelii): 4.11 µg/mL (≈ 8.13 µM)
MIC (Act. naeslundii; Act. naeslundii): 2.01 µg/mL (≈ 3.98 µM)
MIC (Act. actinomycetem; Act. actinomycetem): 0.53 µg/mL (≈ 1.05 µM)
MIC (Fuso. nucleatum; Fuso. nucleatum): 0.64 µg/mL (≈ 1.27 µM)
MIC (Bact. intermedius; Bact. intermedius): 2.49 µg/mL (≈ 4.93 µM)
MIC (Peptostrepto. micros; Peptostrepto. micros): 8.46 µg/mL (≈ 16.7 µM)
MIC (Porph. gingivalis; Porph. gingivalis): 2.36 µg/mL (≈ 4.67 µM)
MIC (Bact. ureolyticus; Bact. ureolyticus): 0.69 µg/mL (≈ 1.37 µM)
MIC (Candida albicans): 1.71 µg/mL (≈ 3.38 µM)
MIC (Candida kefyr; Candida kefyr): 0.42 µg/mL (≈ 0.831 µM)
MIC (Candida tropicalis): 0.98 µg/mL (≈ 1.94 µM)
MIC [1]: ~8.46 µg/mL (≈ 16.7 µM)
MIC (Candida organisms; Candida organisms, read-out: levels for Candida inhibition): 1.71 µg/mL (≈ 3.38 µM)
inhibitory activity against candida species (Candida organisms; result in words, NIC assay): effective

CCCCCCCCCCCCCCCC[n+]1ccccc1 [CPC, cetyl pyridinium chloride]
MIC (Strep. agalactiæ): 0.78 µg/mL
MIC (Strep. sanguis): 2.12 µg/mL
MIC (Strep.mutans): 3.1 µg/mL
MIC (Strep. milleri): 4.58 µg/mL
MIC (Strep. mitis): 2.23 µg/mL
MIC (Strep mitior): 1.22 µg/mL
MIC (Strep. salivarius): 2.36 µg/mL
MIC (Strep.pyogenes): 0.78 µg/mL
MIC (Staph.aureus): 0.66 µg/mL
mean zones (A actinomyces NCTC 9709): 19.41 mm
mean zones (C albicans NCTC 3089): 9.79 mm
mean zones (C kefyr NCTC 3106): 10.43 mm
mean zones (C tropicalis NCTC 3114): 10.39 mm
mean zones (F nucleatum NCTC 10562): 18.99 mm
mean zones (S mutans NCTC 11061): 17.05 mm
mean zones (S sanguis NCTC 10904): 14.44 mm
mean zones (W recta NCTC 11489): 17.15 mm
MIC (G.vaginalis): 0.3 µg/mL
MIC (Lacto odontolyticus): 0.83 µg/mL
MIC (Act. odontolyticus): 1.23 µg/mL
MIC (Act. naeslundii): 4.61 µg/mL
MIC (Act. actinomycetem): 1.02 µg/mL
MIC (Fuso. nucleatum): 0.82 µg/mL
MIC (Bact. intermedius): 4.68 µg/mL
MIC (Peptostrepto. micros): 4.96 µg/mL
MIC (Porph. gingivalis): 0.94 µg/mL
MIC (Bact. ureolyticus): 0.56 µg/mL
MIC (Candida kefyr): 0.61 µg/mL
MIC (Candida tropicalis): 0.48 µg/mL
